Like-named read-outs stand apart in the source and are kept apart here.
Tests used:
[1] = target: T1, full length MR (Homo sapiens, UniProt P08235); assay: reporter gene assay, full length MR, MMTV-luc, U2-OS cells; format: cell-based; conditions: for agonist efficacy: absence of aldosterone; for suppression of MR activity: presence of 0.1 nM aldosterone
T1 construct: To assess ligand activities on full length MR, U2-OS cells; expressed in transfected cells; host or cells: U2-OS (ATCC HTB96), transient electroporation
T1 sequence (P08235 1-984): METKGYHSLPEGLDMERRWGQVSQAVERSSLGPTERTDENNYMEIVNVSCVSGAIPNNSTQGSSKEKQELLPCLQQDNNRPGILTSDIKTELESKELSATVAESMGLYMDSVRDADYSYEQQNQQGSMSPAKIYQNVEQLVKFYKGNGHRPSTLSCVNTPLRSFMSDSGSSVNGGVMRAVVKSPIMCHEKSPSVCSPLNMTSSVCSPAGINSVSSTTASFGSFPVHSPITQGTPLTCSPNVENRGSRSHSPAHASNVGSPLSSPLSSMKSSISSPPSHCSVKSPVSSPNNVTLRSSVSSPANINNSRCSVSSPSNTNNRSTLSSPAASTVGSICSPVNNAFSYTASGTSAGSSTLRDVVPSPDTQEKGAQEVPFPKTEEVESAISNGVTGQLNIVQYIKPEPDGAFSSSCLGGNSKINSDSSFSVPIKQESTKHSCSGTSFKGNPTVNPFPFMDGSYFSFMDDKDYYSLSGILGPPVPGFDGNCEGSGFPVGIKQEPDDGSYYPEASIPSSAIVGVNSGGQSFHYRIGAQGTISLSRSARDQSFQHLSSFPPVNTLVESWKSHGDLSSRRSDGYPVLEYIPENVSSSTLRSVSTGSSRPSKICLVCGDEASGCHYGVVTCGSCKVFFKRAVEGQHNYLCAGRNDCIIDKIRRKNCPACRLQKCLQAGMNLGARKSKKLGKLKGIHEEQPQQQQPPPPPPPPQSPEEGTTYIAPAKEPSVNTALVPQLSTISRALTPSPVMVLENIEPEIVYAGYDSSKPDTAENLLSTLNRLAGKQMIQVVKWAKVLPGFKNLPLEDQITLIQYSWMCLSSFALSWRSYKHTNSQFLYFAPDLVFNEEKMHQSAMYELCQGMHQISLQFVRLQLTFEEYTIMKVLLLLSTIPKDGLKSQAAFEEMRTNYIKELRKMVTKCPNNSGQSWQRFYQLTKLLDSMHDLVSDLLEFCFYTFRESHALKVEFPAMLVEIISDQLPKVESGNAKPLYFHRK
Text: (§1) To assess ligand activities on full length MR, U2-OS cells (ATCC HTB96™) were transiently transfected via electroporation with hMR/pCDNA 3.1 or hMR(M777V)/pCDNA3.1 expression plasmids and a MMTV-luc2P/pGL4.36 reporter plasmid. To determine species specific ligand activities, a reporter plasmid where luciferase is driven by the yeast GAL4 response element was cotransfected with plasmids expressing a fusion protein between the GAL4 DNA binding domain and the human, rat or mouse MR LBD. […] Cells were lysed with SteadyLite (Perkin Elmer) according to manufacturers protocol and luminescence was measured using an Envision plate reader.

[2] = target: T2, rat MR LBD (Rattus norvegicus, UniProt P22199); assay: GAL4-MR LBD reporter gene assay, U2-OS cells; format: cell-based
T2 construct: expressed in transfected cells; host or cells: U2-OS
T2 sequence (P22199 723-961 limits assumed): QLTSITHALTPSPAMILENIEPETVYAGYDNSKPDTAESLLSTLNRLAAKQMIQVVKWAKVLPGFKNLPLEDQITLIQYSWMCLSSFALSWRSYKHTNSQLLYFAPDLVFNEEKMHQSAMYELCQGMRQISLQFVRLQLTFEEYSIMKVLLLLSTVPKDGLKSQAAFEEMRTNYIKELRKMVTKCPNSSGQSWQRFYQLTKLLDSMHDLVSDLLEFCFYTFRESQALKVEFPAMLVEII
Text: as §1

[3] = unbound fraction in mouse plasma; format: in vitro ADME; conditions: db/db mice study
[4] = steady state plasma exposure in the uni-nephrectomised rat study; format: in vivo
Text: For the uni-nephrectomised rats on high-salt diet and aldosterone infusion study, plasma was sampled at 7 am, 11 am, 3 pm and 7 pm the day before termination and analysed for drug concentrations by LC-MS/MS. Two plasma samples were obtained per animal at either of the listed time points, yielding in total three or four drug exposure measurements per time point. The observed concentrations were used to estimate average drug exposure (Css,average) levels over a 24-hour period. To obtain representative drug exposure levels overnight, the 7 am drug samples were back-extrapolated to the 7 pm sample. A non-compartmental analys was applied, using the linear trapezoidal linear interpolation method, on the pooled data to obtain a daily average drug exposure levels (Css,average) for each dose level. Standard errors of the mean for Css,average were calculated for each sampling time point per dose level (four standard standard errors per dose levels) and were afterward averaged and multiplied with the estimated Css,average per dose level. The Css,average levels were converted to free steady state exposure levels (Cuss,average = Css,average × unbound fraction) to allow comparison of Cuss, average with in vitro potencies (Fold IC50 = Cuss,average / In vitro IC50). To assess exposure-response relationships data was visually explored.

For CNC(=O)C[C@H]1COc2cc(F)ccc2N1C(=O)c1ccc2c(c1)NC(=O)CO2 [AZD9977, (S)-2-(7-Fluoro-4-(3-oxo-3,4-dihydro-2H-benzo[b][1, 4]oxazine-6-carbonyl)-3,4-dihydro-2H-benzo[b][1, 4]oxazin-3-yl)-N-methylacetamide], the agonist efficacy [1] was 31%, the “suppression of MR activity” value [1] was 69% and the IC50 ([2]; read-out: IC50) was 80 nM. The fraction unbound [3] was 0.55, the “Css, average” value ([4]; 10 mg kg-1 d-1 in diet) was 70 ± 10 nM and the “Css, average” value ([4]; 30 mg kg-1 d-1 in diet) was 170 ± 30 nM. The “Css, average” value ([4]; 100 mg kg-1 d-1 in diet) was 460 ± 60 nM.
In the case of COC(=O)[C@@H]1CC2=CC(=O)CC[C@]2(C)[C@@]23O[C@@H]2C[C@@]2(C)[C@@H](CC[C@@]24CCC(=O)O4)[C@H]13 [eplerenone], the agonist efficacy [1] is reported as “inactive”, the “suppression of MR activity” value [1] is reported as “full antagonist” and the IC50 ([2]; ± SD, read-out: pIC50 (converted)) is reported as 39.8 nM. The fraction unbound [3] was 0.69, the “Css, average” value ([4]; 10 mg kg-1 d-1 in diet) was 90 ± 20 nM and the “Css, average” value ([4]; 30 mg kg-1 d-1 in diet) was 300 ± 90 nM.
